In brackets after ≈: the same amount, converted by molar mass. Where two headings read alike, the source gives them in different places.
Experiments:
[1] = Solubility determination (shaking 24 hours, HPLC); assay type: physicochemical; conditions: for solubility at 24 h: thermodynamic from solid, shaking 24 hours
Experimental: An aqueous solution of pH 2.0 (the pH was adjusted with an appropriate amount of hydrochloric acid), an aqueous solution of pH 7.4 (the pH was adjusted with 10 mM potassium dihydrogen phosphate and an appropriate amount of NaOH), and a fasted-state simulated intestinal fluid (FaSSIF) were prepared as solvents, respectively. Several portions of the sample for test, 1 mg each, were weighed and dissolved in different solvents, 1 mL each. The solutions were thoroughly shaked, and then subjected to ultrasonic operation for 5 minutes. […] After shaking in a constant temperature shaking water bath for 24 hours, filtration was carried out through a 0.45 uM aqueous filter membrane, followed by HPLC analysis for determination of the solubility.

[2] = Pharmacokinetic experiment in beagle dogs; assay type: in vivo; conditions: 2.5 mg/kg, capsules intragastrically
Experimental: The crystalline forms A and C of the fumarate salt of the compound of Formula (I) were encapsulated into capsules and administered intragastrically to beagle dogs at a dose of 2.5 mg/kg. Venous blood was collected at different time points after administration and separately subjected to the detection of the original free base form of the compound of Formula (I) and its metabolite tenofovir (TFV).

[3] = Hygroscopicity test by dynamic vapor sorption (DVS); assay type: physicochemical; conditions: 25° C.
Experimental: The hygroscopicity of crystalline forms A and B of the fumarate salt was measured by dynamic vapor sorption (DVS) using a DVS Intrinsic (SMS) at 25° C. in a cycle-DMDT mode.

[4] = Physicochemical stability test, placed open at 40° C./75% RH; conditions: placed open 14 days at 40° C./75% RH
Experimental: An appropriate amount of crystalline form A of the fumarate salt of the compound of Formula (I) of the invention was detected for the physicochemical stability thereof under the following conditions: placed open for 14 days at 40° C./75% RH. XRPD and LC-MS analysis were then carried out to determine the crystalline form and the change in purity.

[5] = phase III clinical trial, cited from earlier work
[6] = beagle, dog, venous blood, po, analyte: free base of the compound of Formula (I)
[7] = analyte: free base of the compound of Formula (I), listed as crystalline form A of the fumarate salt
[8] = analyte: free base of the compound of Formula (I), listed as crystalline form C of the fumarate salt

## C[C@H](Cn1cnc2c(N)ncnc21)OC[P@@](=O)(NCCOCc1ccccc1)Oc1ccccc1 [listing 1 of 3 here]
[1]; aqueous solution of pH 2.0, simulated gastric fluid, aqueous solution pH 2.0 (hydrochloric acid), read-out: Solubility, H2O (pH 2.0)
  solubility at 24 h: 1000 µg/mL (≈ 2010 µM)
[1]; aqueous solution of pH 7.4, aqueous buffer, aqueous solution pH 7.4 (10 mM potassium dihydrogen phosphate/NaOH), read-out: Solubility, H2O (pH 7.4)
  solubility at 24 h: 990 µg/mL (≈ 1990 µM)
[1]; fasted-state simulated intestinal fluid (FaSSIF), FaSSIF, read-out: Solubility, fasted-state simulated intestinal fluid (FaSSIF)
  solubility at 24 h: 910 µg/mL (≈ 1830 µM)
[1]; water and fasted-state intestinal fluid
  Solubility (in words): good solubility
[2]; [6]
  AUC(0-inf): 66.7 ng·h/mL
  AUC(0-t): 66.2 ng·h/mL
  half-life: 33 min
[2]; beagle, dog, venous blood, po, analyte: free base of the compound of Formula (I), read-out: Cmax
  Cmax: 67.4 ng/mL
[2]
  Conversion to TFV (in words): rapidly converted to TFV
[2]; [7]
  MRTINF: 73.2 min
  Tmax: 41.4 min
[3]; DVS
  Hygroscopicity (in words): little or no hygroscopicity
[3]; target humidity 0%
  Mass change caused by moisture absorption (%): 0%
[3]; target humidity 10%
  Mass change caused by moisture absorption (%): 0.019%
[3]; target humidity 20%, listed as crystalline form A of the fumarate salt
  Mass change caused by moisture absorption (%): 0.04%
[3]; target humidity 30%
  Mass change caused by moisture absorption (%): 0.057%
[3]; target humidity 40%
  Mass change caused by moisture absorption (%): 0.078%
[3]; target humidity 50%
  Mass change caused by moisture absorption (%): 0.096%
[3]; target humidity 60%
  Mass change caused by moisture absorption (%): 0.117%
[3]; target humidity 70%
  Mass change caused by moisture absorption (%): 0.137%
[3]; target humidity 80%
  Mass change caused by moisture absorption (%): less than 0.2%
[3]; target humidity 80%, listed as crystalline form A of the fumarate salt
  Mass change caused by moisture absorption (%): 0.158%
[3]; target humidity 90%
  Mass change caused by moisture absorption (%): less than 0.2%
[3]; target humidity 90%, listed as crystalline form A of the fumarate salt
  Mass change caused by moisture absorption (%): 0.192%
[4]; LC-MS
  Relative purity after storage: up to 99%
[4]; XRPD and LC-MS
  Change after storage (crystalline form and purity, in words): without significant change

## C[C@H](Cn1cnc2c(N)ncnc21)OC[P@@](=O)(NCCOCc1ccccc1)Oc1ccccc1 [listing 2 of 3 here]
[3]; target humidity 20%
  Mass change caused by moisture absorption (%): 0.2%

## CC(C)OC(=O)[C@H](C)N[P@](=O)(CO[C@H](C)Cn1cnc2c(N)ncnc21)Oc1ccccc1 [TAF, Tenofovir alafenamide]
[5]; patients
  ALT recovery rate: lower than 80%
[5]; share of patients
  Patients in whom glomerular filtration rate decreased by more than 25%: more than 10%
  Patients in whom spinal bone mineral density (BMD) decreased by more than 5%: more than 10%

## C[C@H](Cn1cnc2c(N)ncnc21)OC[P@@](=O)(NCCOCc1ccccc1)Oc1ccccc1 [listing 3 of 3 here]
[2]; [8]
  AUCINF: 43.4 ng·h/mL
  AUClast: 41.7 ng·h/mL
  Cmax: 77.5 ng/mL
  MRTINF: 33.6 min
  T1/2: 17.4 min
  Tmax: 18.6 min

Reference: US11186599B2, “Phosphonamide ester compound, salt thereof, related crystal form thereof, preparation method therefor and use thereof” (SICHUAN KELUN-BIOTECH BIOPHARMACEUTICAL CO., LTD., priority 2018, dated 2021)
